Results published in patent US20120219623A1, “PHARMACEUTICAL COMPOSITIONS COMPRISING BI-1356 AND METFORMIN” (BOEHRINGER INGELHEIM INTERNATIONAL GMBH, priority 2009, published 2012).

Columns and labels:
[1] = test system: type 2 diabetes mellitus patients with insufficient glycemic control on metformin; details: human, in vivo, 24 weeks
[2] = test system: type 2 diabetes patients with insufficient glycemic control on metformin plus sulfonylurea; experiment: 24-wk placebo-controlled study of linagliptin add-on to metformin plus sulfonylurea
[3] = therapeutic oral dose levels
[4] = test system: inadequately controlled, metformin-treated type 2 diabetic patients; experiment: 12-week randomized, double-blind study of BI 1356 add-on to metformin vs placebo or open label glimepiride; details: 12 weeks

hypoglycemia, proportion of patients [1]: 0.6%
excreted via the kidney [3]: < 7 % of the administered oral dose
drug-related hypoglycaemia [4]: no case of hypoglycaemia
SMILES: CC#CCn1c(N2CCC[C@@H](N)C2)nc2c1c(=O)n(Cc1nc(C)c3ccccc3n1)c(=O)n2C [BI 1356]
proportion of patients reporting at least one adverse event (AE) [1]: 52.8%
insulin resistance (HOMA-IR) ([2]; LI vs. PBO, FAS, P<0.05): improve
β-cell function (HOMA-% B) ([2]; LI vs. PBO, FAS, P<0.05): improve
adjusted mean difference between LI and PBO for the change in fasting plasma glucose (FPG) from baseline ([2]; wk 24, full analysis set, add-on to MET plus SU): -13 mg/dL
route of excretion [3]: primarily excreted unchanged via the bile
